Results as given in US4676822A, “Fluid fertilizers containing thiophosphoryl triamide” (Tennessee Valley Authority, priority 1986, dated 1987).
Several values for one entry are separate records, joined by “and”; a condition that tells them apart may be missing. Identical values can stand only once.

Legend:
[1] = Stability of TPTA in UAN (31-0-0) at 25° C. (HPLC); type: physicochemical; settings: for % original TPTA remaining: UAN (31-0-0)
Experimental: A sample containing 1 weight percent TPTA was prepared by dissolving 1 g of TPTA in 99 g of 31-0-0 having the composition given in Table I, supra, and an initial pH of 8.1. The sample was maintained at room temperature (25° C.) and analyzed periodically for TPTA by HPLC. The results of the kinetic study are given in Table V infra and as noted supra plotted in FIG. 4 along with the first-order rate equation (solid line in FIG. 4) which was determined by linear regression.

[2] = 25° C., water partial pressure 12.73 mm of Hg; cited from earlier work
[3] = compared with PPDA; cited from earlier work

## NP(N)(N)=S [TPTA, thiophosphoryl triamide]
[1]; 1 wt % TPTA, initial pH 8.1, first-order
  reaction half-life in the 31-0-0 solution: 93 days
[1]; time 0.00 days
  % original TPTA remaining: 100.00%
[1]; time 1.22 days
  % original TPTA remaining: 100.00%
[1]; time 5.22 days
  % original TPTA remaining: 97.60%
[1]; time 7.13 days
  % original TPTA remaining: 100.00%
[1]; time 9.09 days
  % original TPTA remaining: 99.55%
[1]; time 12.07 days
  % original TPTA remaining: 101.78%
[1]; time 14.22 days
  % original TPTA remaining: 100.47%
[1]; time 16.01 days, 23054.4 min
  % original TPTA remaining: 95.59% and 95.43%
[1]; time 20.05 days
  % original TPTA remaining: 89.05%
[1]; time 26.05 days
  % original TPTA remaining: 95.55%
[1]; time 40.17 days
  % original TPTA remaining: 79.49%
[1]; time 47.14 days
  % original TPTA remaining: 79.62%
[1]; time 61.08 days
  % original TPTA remaining: 74.35%
[1]; time 64.99 days
  % original TPTA remaining: 63.03%
[1]; time 71.70 days
  % original TPTA remaining: 68.55%
[1]; time 82.71 days, 119102 min
  % original TPTA remaining: 43.85%
[1]; time 90.71 days, 130622 min
  % original TPTA remaining: 52.17%
[1]; time 96.75 days
  % original TPTA remaining: 51.55%
[1]; time 103.71 days
  % original TPTA remaining: 52.04%
[1]; time 111.71 days
  % original TPTA remaining: 47.46%
[2]
  reaction half-life in solid mixtures with urea: 1.6 days
[3]
  stability in urea melt: substantially more stable in urea melt than PPDA
